Data on 45 compounds can be found in patent US20100105722A1, “Substituted 4,5,6,7-tetrahydrothienopyridines as KCNQ2/3 Modulators” (GRUENENTHAL GmbH, priority 2008, published 2010).

In the test the target is T1, hKCNQ2/3 (Homo sapiens, UniProt O43525+O43526).
T1 construct: expressed in transfected cells; host or cells: CHO-K1
In words: Fluorescence assay using a voltage sensitive dye (fluorimetry). The format is cell-based. Conditions: for Emax at 10 µM / Fluorimetry % Efficacy @ 10 μM (reti-gabine = 100%): relative to retigabine = 100%. The protocol: Fluorescence Assay using a Voltage Sensitive Dye
Human CHO-K1 cells expressing KCNQ2/3 channels are cultivated adherently at 37° C., 5% CO2 and 95% humidity in cell culture bottles (e.g. 80 cm^2 TC flasks, Nunc) with DMEM-high glucose (Sigma Aldrich, D7777) including 10% FCS (PAN Biotech, e.g. 3302-P270521) or alternatively MEM Alpha Medium (1×, liquid, Invitrogen, #22571), 10% fetal calf serum (FCS) (Invitrogen, #10270-106, heat-inactivated) and the necessary selection antibiotics.
Before being sown out for the measurements, the cells are washed with a 1×DPBS buffer without Ca^2+/Mg^2+ (e.g. Invitrogen, #14190-094) and detached from the bottom of the culture vessel by means of Accutase (PAA Laboratories, #L11-007) (incubation with Accutase for 15 min at 37° C.). The cell count then present is determined using a CASY™ cell counter (TCC model, Schärfe System) in order subsequently to apply, depending on the density optimization for the individual cell line, 20,000-30,000 cells/well/100 μl of the described nutrient medium to 96-well measuring plates of the Corning™ CellBIND™ type (Flat Clear Bottom Black Polystyrene Microplates, #3340). Incubation is then carried out for one hour at room temperature, without gassing or adjusting the humidity, followed by incubation for 24 hours at 37° C., 5% CO2 and 95% humidity.
The voltage-sensitive fluorescent dye from the Membrane Potential Assay Kit (Red™ Bulk format part R8123 for FLIPR, MDS Analytical Technologies™) is prepared by dissolving the contents of a vessel Membrane Potential Assay Kit Red Component A in 200 ml of extracellular buffer (ES buffer, 120 mM NaCl, 1 mM KCl, 10 mM HEPES, 2 mM CaCl2, 2 mM MgCl2, 10 mM glucose; pH 7.4). After removal of the nutrient medium, the cells are washed with 200 μl of ES buffer, then covered with a layer of 100 μl of the dye solution prepared above and incubated for 45 min at room temperature with the exclusion of light.
The fluorescence measurements are carried out with a BMG Labtech FLUOstar™, BMG Labtech NOVOstar™ or BMG Labtech POLARstar™ instrument (525 nm excitation, 560 nm emission, Bottom Read mode). After incubation of the dye, 50 μl of the test substances in the desired concentrations, or 50 μl of ES buffer for control purposes, are introduced into separate cavities of the measuring plate and incubated for 30 min at room temperature while being shielded from light. The fluorescence intensity of the dye is then measured for 5 min and the fluorescence value F1 of each well is thus determined at a given, constant time. 15 μl of a […] KCl solution ([…]) are then added to each well. The change in fluorescence is subsequently measured until all the relevant measured values have been obtained (mainly 5-30 min). At a given time after KCl application, a fluorescence value F2 is determined, in this case at the time of the fluorescence peak.
For calculation, the fluorescence intensity F2 is compared with the fluorescence intensity F1, and the agonistic activity of the target compound on the potassium channel is determined therefrom. F2 and F1 are calculated as follows: […]
In order to determine whether a substance has agonistic activity, […]
for example, can be compared with […]
is determined by adding to the reaction batch only the buffer solution instead of the test substance, determining the value F1K of the fluorescence intensity, adding the potassium ions as described above, and measuring a value F2K of the fluorescence intensity. F2K and F1K are then calculated as follows: […]
A substance has an agonistic activity on the potassium channel when […]
Independently of the comparison of […]
it is possible to conclude that a target compound has agonistic activity if an increase in […]
is to be observed as the dosage of the target compound increases.
Calculations of EC50 and IC50 values are carried out with the aid of ‘Prism v4.0’ software (GraphPad Software™).

Where [1] appears, read: CHO-K1 cells expressing KCNQ2/3, Table 3.
[2] abbreviates: CHO-K1, 10 μM, CHO-K1 cells expressing KCNQ2/3, Table 3, read-out: Fluorimetry % Efficacy @ 10 μM (reti-gabine = 100%).
Setting [3] is: 10 μM, CHO-K1 cells expressing KCNQ2/3, Table 3.

Read-outs that look alike come from different tables or passages of the source.

`O=C(CCC(=O)N1CCc2sccc2C1c1ccccc1)NCc1cc(F)cc(C(F)(F)F)c1` (stereo not shown) [compound 41] displayed an EC50 under setting [1] of 261 nM.

For `O=C(CC(C(=O)N1CCc2sccc2C1c1ccccc1)c1ccccc1)NCc1cccc(C(F)(F)F)c1` (stereo not shown) [compound 29], under setting [2], the Emax at 10 µM was -45%. Besides, under setting [1], the midpoint of inhibition, the IC50, lay at 133 nM.

Regarding `O=C(CCC(=O)N1CCc2sccc2C1c1ccccc1)NCc1ccc(C(F)(F)F)cc1` (stereo not shown) [compound 13], the Emax at 10 µM under setting [2] came out at 51%. The EC50 under setting [1] is 375 nM.

For the compound `COc1ccc(CNC(=O)CCC(=O)N2CCc3sccc3C2c2ccccc2)cc1` (stereo not shown) [compound 16], the Emax at 10 µM under setting [2] amounted to 21%.

For the compound `Cc1ccc(C2c3ccsc3CCN2C(=O)CCC(=O)Nc2ccc3cnn(C)c3c2)cc1` (stereo not shown) [compound 47], under setting [2], the Emax at 10 µM amounted to 37%.

Under setting [1], `Cc1ccsc1C1c2ccsc2CCN1C(=O)CCC(=O)NCc1cccc(C(F)(F)F)c1` (stereo not shown) [compound 254] came in with an EC50 of 211 nM.

Under setting [1], `O=C(CCC(=O)N1CCc2sccc2C1CCc1ccccc1)NCc1cccc(C(F)(F)F)c1` (stereo not shown) [compound 261] returned an EC50 of 84 nM.

With `Cc1ccc(C2c3ccsc3CCN2C(=O)CCC(=O)NCc2cccc(C(F)(F)F)c2)cc1` (stereo not shown) [compound 5], under setting [2], the Emax at 10 µM turned out to be 61%. Under setting [1], this compound had an EC50 above 1660 nM.

As for `Cc1cccc(C2c3ccsc3CCN2C(=O)CCC(=O)Nc2ccc3cnn(C)c3c2)c1` (stereo not shown) [compound 53], the Emax at 10 µM under setting [2] worked out at 28%.

For the compound `Cc1cc2c(s1)CCN(C(=O)CCC(=O)NCc1cccc(C(F)(F)F)c1)C2c1ccccc1` (stereo not shown) [compound 10], the Emax at 10 µM under setting [2] stood at 121%. Under setting [1], the EC50 stood at 382 nM.

As to `Cc1ccc(C2c3ccsc3CCN2C(=O)CCC(=O)NCCc2ccccc2)cc1` (stereo not shown) [compound 49], the Emax at 10 µM under setting [2] is 38%.

Turning to `Cc1csc2c1C(c1ccccc1)N(C(=O)CCC(=O)NCc1cccc(C(F)(F)F)c1)CC2` (stereo not shown) [compound 20], under setting [2], the Emax at 10 µM came to 54%. The EC50 under setting [1] is 722 nM.

For the compound `CC(C)C1c2ccsc2CCN1C(=O)CCC(=O)NCc1cccc(C(F)(F)F)c1` (stereo not shown) [compound 22], the Emax at 10 µM under setting [2] stood at 139%. A half-maximal effect under setting [1] (EC50) was put at 1220 nM.

With `Cc1ccc(CNC(=O)CCC(=O)N2CCc3sccc3C2c2ccccc2)cc1C(F)(F)F` (stereo not shown) [compound 249], the EC50 under setting [1] came to 347 nM.

As for `C[C@H](CC(=O)N1CCc2sccc2C1c1ccccc1)C(=O)NCc1cccc(C(F)(F)F)c1` (stereo partly shown) [compound 28], the Emax at 10 µM under setting [2] came out at 106%. Moreover, the EC50 under setting [1] was determined as 540 nM.

`C[C@H](CC(=O)NCc1cccc(C(F)(F)F)c1)C(=O)N1CCc2sccc2C1c1ccccc1` (stereo partly shown) [compound 34]: the Emax at 10 µM under setting [2] is 179%. The compound further showed an EC50 under setting [1] of 628 nM.

For `O=C(CCC(=O)N1CCc2sccc2C1c1ccc(F)cc1)NCc1cccc(C(F)(F)F)c1` (stereo not shown) [compound 7], the Emax at 10 µM under setting [2] was found to be 132%. Also, under setting [1], the EC50 stood at 348 nM.

Under setting [1], `O=C(CCC(=O)N1CCc2ccsc2C1C1CCCCC1)NCc1cccc(C(F)(F)F)c1` (stereo not shown) [compound 275] had an EC50 of 962 nM.

Consider `O=C(NCc1cccc(C(F)(F)F)c1)C1CCCCC1C(=O)N1CCc2sccc2C1c1ccccc1` (mixture of isomers) [compound 31], for which, under setting [3], the “Fluorimetry % Efficacy @ 10 μM (reti-gabine = 100%)” value is recorded as −44%. Under setting [1], this compound had an IC50 of 250 nM.

On to `CCCCC1c2ccsc2CCN1C(=O)CCC(=O)NCc1cccc(C(F)(F)F)c1` (stereo not shown) [compound 23], for which the Emax at 10 µM under setting [2] came out at 146%. This compound also gave an EC50 under setting [1] of 947 nM.

With `COc1ccc(NC(=O)CCC(=O)N2CCc3sccc3C2c2ccc(C)cc2)cc1` (stereo not shown) [compound 46], under setting [2], the Emax at 10 µM worked out at 35%.

As for `Cc1cccc(CNC(=O)CCC(=O)N2CCc3sccc3C2c2ccccc2)c1` (stereo not shown) [compound 19], the Emax at 10 µM under setting [2] was -45%.

For the compound `Cc1ccccc1CNC(=O)CCC(=O)N1CCc2sccc2C1c1ccccc1` (stereo not shown) [compound 26], under setting [2], the Emax at 10 µM is -20%.

As to `O=C(NCc1cccc(C(F)(F)F)c1)C1CCCCC1C(=O)N1CCc2sccc2C1c1ccccc1` (stereo not shown) [compound 32], under setting [3], the “Fluorimetry % Efficacy @ 10 μM (reti-gabine = 100%)” value is on record as 110%. Under setting [1], this compound came in with an EC50 of 414 nM.

`O=C(CCC(=O)N1CCc2ccsc2C1c1ccccc1)NCc1cccc(C(F)(F)F)c1` (stereo not shown) [compound 9]: the Emax at 10 µM under setting [2] is 110%. This compound also registered an EC50 under setting [1] of 407 nM.

Under setting [1], `Cc1ccccc1C1c2sccc2CCN1C(=O)CCC(=O)NCc1cccc(C(F)(F)F)c1` (stereo not shown) [compound 274] displayed an EC50 of 323 nM.

The compound `CCc1ccccc1C1c2ccsc2CCN1C(=O)CCC(=O)NCc1cccc(C(F)(F)F)c1` (stereo not shown) [compound 251] had an EC50 under setting [1] of 131 nM.

As to `Cc1ccccc1C1c2ccsc2CCN1C(=O)CCC(=O)NCc1ccc(C(F)(F)F)cc1` (stereo not shown) [compound 257], the EC50 under setting [1] is 547 nM.

For `O=C(CCC(=O)N1CCn2cccc2C1c1cccs1)NCc1cccc(C(F)(F)F)c1` (stereo not shown) [Example No. 76 of WO 2008/046582, reference compound], the Emax at 10 µM (10 μM, comparison experiments table, read-out: Fluorimetry % Efficacy @ 10 μM (retigabine = 100%)) turned out to be 113%. Where the note is “comparison experiments table”, this compound registered an EC50 of 3290 nM.

Take `O=C(NCc1cccc(C(F)(F)F)c1)C(CC(=O)N1CCc2sccc2C1c1ccccc1)c1ccccc1` (stereo not shown) [compound 27]: the Emax at 10 µM under setting [2] was found to be 119%. Further, the EC50 under setting [1] was above 404 nM.

In the case of `Cc1scc2c1CCN(C(=O)CCC(=O)NCc1cccc(C(F)(F)F)c1)C2c1ccccc1` (stereo not shown) [compound 45], under setting [2], the Emax at 10 µM was found to be 39%. This compound had an EC50 under setting [1] of 311 nM.

`O=C(CC(C(=O)N1CCc2sccc2C1)c1ccccc1)NCc1cccc(C(F)(F)F)c1` (stereo not shown) [compound 30]: the Emax at 10 µM under setting [2] was -101%. For the same compound, the IC50 under setting [1] is 212 nM.

`Cc1cc(F)ccc1C1c2ccsc2CCN1C(=O)CCC(=O)NCc1cccc(C(F)(F)F)c1` (stereo not shown) [compound 262] returned an EC50 under setting [1] of 166 nM.

In the case of `O=C(CCC(=O)N1CCc2sccc2C1c1ccccc1)NCc1cccc(C(F)(F)F)c1F` (stereo not shown) [compound 40], under setting [1], a half-maximal effect (EC50) was put at 156 nM.

On to `COc1ccccc1CNC(=O)CCC(=O)N1CCc2sccc2C1c1ccccc1` (stereo not shown) [compound 14], for which the Emax at 10 µM under setting [2] is -54%.

`O=C(CCC(=O)N1CCc2sccc2C1C1CCCC1)NCc1cccc(C(F)(F)F)c1` (stereo not shown) [compound 263]: the EC50 under setting [1] amounted to 160 nM.

For the compound `CCCCC1c2sccc2CCN1C(=O)CCC(=O)NCc1cccc(C(F)(F)F)c1` (stereo not shown) [compound 258], under setting [1], a half-maximal effect (EC50) was put at 306 nM.

Under setting [1], `Cc1ccccc1C1c2ccsc2CCN1C(=O)CCC(=O)NCc1ccccc1C(F)(F)F` (stereo not shown) [compound 256] yielded an EC50 of 90 nM.

Regarding `COc1cccc(CNC(=O)CCC(=O)N2CCc3sccc3C2c2ccccc2)c1` (stereo not shown) [compound 15], the Emax at 10 µM under setting [2] was -46%.

On to `Cc1cccc(C2c3ccsc3CCN2C(=O)CCC(=O)NCc2cccc(C(F)(F)F)c2)c1` (stereo not shown) [compound 4], for which, under setting [2], the Emax at 10 µM was found to be 102%. Moreover, the EC50 under setting [1] came out at 456 nM.

For the compound `Cc1ccc(C2c3ccsc3CCN2C(=O)CCC(=O)NCCCc2ccccc2)cc1` (stereo not shown) [compound 51], the Emax at 10 µM under setting [2] was 38%.

For `O=C(CCC(=O)N1CCc2sccc2C1c1ccccc1)NCc1cccc(F)c1` (stereo not shown) [compound 18], under setting [2], the Emax at 10 µM was 11%. Besides, a half-maximal effect under setting [1] (EC50) was put at 2180 nM.

Take `Cc1cccc(C2c3ccsc3CCN2C(=O)CCC(=O)Nc2cccc3nsnc23)c1` (stereo not shown) [compound 52]: the Emax at 10 µM under setting [2] came to 15%.

`O=C(CCC(=O)N1CCc2sccc2C1c1ccccc1)NCCC1CCCCC1` (stereo not shown) [compound 245] returned an EC50 under setting [1] of 690 nM.

As for `O=C(CCC(=O)N1CCc2sccc2C1CCCc1ccccc1)NCc1cccc(C(F)(F)F)c1` (stereo not shown) [compound 265], the EC50 under setting [1] amounted to 596 nM.

The term EC50 denotes the concentration giving half of the maximal effect. A word on the IC50: it is the midpoint of a concentration-inhibition curve. A lower IC50 goes with greater potency in that assay.
